Measured values reported in patent US20030225152A1, “3-(Arylamino)methylene-1, 3-dihydro-2h-indol-2-ones as kinase inhibitors” (priority 2001, published 2003).

System: VEGF induced increases in intracellular calcium levels in HUVEC (human umbilical vein endothelial cells)
Assay: VEGF Stimulated Ca++ Signal in vitro (FLIPR)
Type: cell-based
Settings: Homo sapiens, 10 μM, VEGF 5 ng/mL
Method in brief: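 IC50 values derive from % inhibition of the VEGF (5 ng/mL) calcium response, taken as max-min fluorescence at 516 nm in Fluo-4-loaded HUVEC. Compounds (0.1% DMSO final) were added 30 min before stimulation, at 10 μM or across 0.01–10.0 μM.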

Structure (SMILES) | inhibition at 10 µM
CC(=O)Nc1ccc(NC=C2C(=O)Nc3ccccc32)cc1 [Example 34, 3-[(4-Acetanilidylamino)-methylene]-1,3-dihydro-indol-2-one] | 94.5%
O=C(O)Cc1cccc(NC=C2C(=O)Nc3ccccc32)c1 [Example 35, (3-[(2-Oxo-1,2-dihydro-indol-3-ylidenemethyl)-amino]-phenyl-)acetic acid] | 95.1%
O=C1Nc2ccccc2C1=CNc1ccc2ncsc2c1 [Example 43, 3-[(6-Benzthioazolylamino)-methylene]-1,3-dihydro-indol-2-one] | 84%
O=C1Nc2ccccc2C1=CNc1ccc(C(=O)O)c(O)c1 [Example 44, 2-Hydroxy-4-[(2-oxo-1,2-dihydro-indol-3-ylidenemethyl)-amino]-benzoic acid] | 96%
Cc1ccc(NC=C2C(=O)Nc3ccccc32)cc1O [Example 48, 3-[(3-Hydroxy-4-methyl-phenylamino)-methylene]-1,3-dihydro-indol-2-one] | 95.4%
COc1ccc(NC=C2C(=O)Nc3ccccc32)cc1O [Example 49, 3-[(3-Hydroxy-4-methoxy-phenylamino)-methylene]-1,3-dihydro-indol-2-one] | 97.1%
O=C1Nc2ccccc2C1=CNc1ccc(OC(F)F)cc1 [Example 50, 3-{[4-(1,1-Difluoro-methoxy)-phenylamino]-methylene}-1,3-dihydro-indol-2-one] | 93.5%
CC(C)c1ccc(NC=C2C(=O)Nc3ccccc32)cc1 [Example 52, 3-[(4-Isopropyl-phenylamino)-methylene]-1,3-dihydro-indol-2-one] | 69%
COc1cccc(NC=C2C(=O)Nc3ccc(Cl)cc32)c1 [Example 57, 5-Chloro-3-[(3-methoxy-phenylamino)-methylene]-1,3-dihydro-indol-2-one] | 60%
COc1ccc(NC=C2C(=O)Nc3cccc(C)c32)cc1 [Example 59, 3-[(4-Methoxy-phenylamino)-methylene]-4-methyl-1,3-dihydro-indol-2-one] | 86%
Cc1cccc2c1C(=CNc1cccc(O)c1)C(=O)N2 [Example 60, 3-[(3-Hydroxy-phenylarmino)-methylene]-4-methyl-1,3-dihydro-indol-2-one] | 94%
COc1ccc(NC=C2C(=O)Nc3ccc(Cl)cc32)cc1O [Example 65, 3-[(3-Hydroxy-4-methoxyphenylamino)-methylene]-5-chloro-1,3-dihydro-indol-2-one] | 95.5%
CC(O)c1ccc(NC=C2C(=O)Nc3ccc(Cl)cc32)cc1 (centres unmarked) [Example 72, 5-Chloro-3-{[4-(1-hydroxy-ethyl)-phenylamino]-methylene}-1,3-dihydro-indol-2-one] | 81.5%
COc1ccc(NC=C2C(=O)Nc3ccc(Cl)cc32)cc1 [Example 73, 3-[(4-Methoxyphenylamino)-methylene]-5-chloro-1,3-dihydro-indol-2-one] | 56.5%

Same assay, conditions: Homo sapiens, 0.01 to 10.0 μM, VEGF 5 ng/mL

Structure (SMILES) | IC50
CC(=O)Nc1ccc(NC=C2C(=O)Nc3ccccc32)cc1 [Example 34, 3-[(4-Acetanilidylamino)-methylene]-1,3-dihydro-indol-2-one] | 2250 nM
O=C(O)Cc1cccc(NC=C2C(=O)Nc3ccccc32)c1 [Example 35, (3-[(2-Oxo-1,2-dihydro-indol-3-ylidenemethyl)-amino]-phenyl-)acetic acid] | 3100 nM
O=C1Nc2ccccc2C1=CNc1ccc2ncsc2c1 [Example 43, 3-[(6-Benzthioazolylamino)-methylene]-1,3-dihydro-indol-2-one] | 1740 nM
O=C1Nc2ccccc2C1=CNc1ccc(C(=O)O)c(O)c1 [Example 44, 2-Hydroxy-4-[(2-oxo-1,2-dihydro-indol-3-ylidenemethyl)-amino]-benzoic acid] | 2020 nM
O=C1Nc2ccccc2C1=CNc1ccc(OC(F)F)cc1 [Example 50, 3-{[4-(1,1-Difluoro-methoxy)-phenylamino]-methylene}-1,3-dihydro-indol-2-one] | 1650 nM
CC(C)c1ccc(NC=C2C(=O)Nc3ccccc32)cc1 [Example 52, 3-[(4-Isopropyl-phenylamino)-methylene]-1,3-dihydro-indol-2-one] | 2280 nM
COc1cccc(NC=C2C(=O)Nc3ccc(Cl)cc32)c1 [Example 57, 5-Chloro-3-[(3-methoxy-phenylamino)-methylene]-1,3-dihydro-indol-2-one] | 5850 nM
COc1ccc(NC=C2C(=O)Nc3cccc(C)c32)cc1 [Example 59, 3-[(4-Methoxy-phenylamino)-methylene]-4-methyl-1,3-dihydro-indol-2-one] | 1650 nM
Cc1cccc2c1C(=CNc1cccc(O)c1)C(=O)N2 [Example 60, 3-[(3-Hydroxy-phenylarmino)-methylene]-4-methyl-1,3-dihydro-indol-2-one] | 1330 nM
COc1ccc(NC=C2C(=O)Nc3ccc(Cl)cc32)cc1O [Example 65, 3-[(3-Hydroxy-4-methoxyphenylamino)-methylene]-5-chloro-1,3-dihydro-indol-2-one] | 1100 nM
CC(O)c1ccc(NC=C2C(=O)Nc3ccc(Cl)cc32)cc1 (centres unmarked) [Example 72, 5-Chloro-3-{[4-(1-hydroxy-ethyl)-phenylamino]-methylene}-1,3-dihydro-indol-2-one] | 1560 nM
COc1ccc(NC=C2C(=O)Nc3ccc(Cl)cc32)cc1 [Example 73, 3-[(4-Methoxyphenylamino)-methylene]-5-chloro-1,3-dihydro-indol-2-one] | 3650 nM

Target: T1, cytoplasmic domain of the human VEGF receptor (VEGFR-2) (Homo sapiens, UniProt P35968)
T1 construct: The cytoplasmic domain of the human VEGF receptor (VEGFR-2) was expressed as a Histidine-tagged fusion protein; Histidine tag
Assay: KDR Assay
Type: biochemical
Settings: His-VEGFR-2; 3.6 μM ATP
Procedure: The cytoplasmic domain of the human VEGF receptor (VEGFR-2) was expressed as a Histidine-tagged fusion protein following infection of insect cells using an engineered baculovirus. His-VEGFR-2 was purified to homogeneity, as determined by SDS-PAGE, using nickel resin chromatography. Kinase assays were performed in 96 well microtiter plates that were coated overnight with 30 μg of poly-Glu-Tyr (4:1) in 10 mM Phosphate Buffered Saline (PBS), pH 7.2-7.4. The plates were incubated with 1% BSA and then washed four times with PBS prior to starting the reaction. Reactions were carried out in 120 μL reaction volumes containing 3.6 μM ATP in kinase buffer (50 mM Hepes buffer pH 7.4, 20 mM MgCl2, 0.1 mM MnCl2 and 0.2 mM Na3VO4). Test compounds were reconstituted in 100% DMSO and added to the reaction to give a final DMSO concentration of 5%. Reactions were initiated by the addition 0.5 ng of purified protein. Following a ten minute incubation at 25° C., the reactions were washed four times with PBS containing 0.05% Tween-20. 100 μl of a monoclonal anti-phosphotyrosine antibody-peroxidase conjugate was diluted 1:10000 in PBS-Tween-20 and added to the wells for 30 minutes. Following four washes with PBS-Tween-20, 100 μl of O-phenylenediamine Dihydrochloride in Phosphate-citrate buffer, containing urea hydrogen peroxide, was added to the wells for 7 minutes as a colorimetric substrate for the peroxidase. The reaction was terminated by the addition of 100 μl of 2.5N H2SO4 to each well and read using a microplate ELISA reader set at 492 nm. IC50 values for compound inhibition were calculated directly from graphs of optical density (arbitrary units) versus compound concentration following subtraction of blank values.

T1 sequence (P35968 786-1356): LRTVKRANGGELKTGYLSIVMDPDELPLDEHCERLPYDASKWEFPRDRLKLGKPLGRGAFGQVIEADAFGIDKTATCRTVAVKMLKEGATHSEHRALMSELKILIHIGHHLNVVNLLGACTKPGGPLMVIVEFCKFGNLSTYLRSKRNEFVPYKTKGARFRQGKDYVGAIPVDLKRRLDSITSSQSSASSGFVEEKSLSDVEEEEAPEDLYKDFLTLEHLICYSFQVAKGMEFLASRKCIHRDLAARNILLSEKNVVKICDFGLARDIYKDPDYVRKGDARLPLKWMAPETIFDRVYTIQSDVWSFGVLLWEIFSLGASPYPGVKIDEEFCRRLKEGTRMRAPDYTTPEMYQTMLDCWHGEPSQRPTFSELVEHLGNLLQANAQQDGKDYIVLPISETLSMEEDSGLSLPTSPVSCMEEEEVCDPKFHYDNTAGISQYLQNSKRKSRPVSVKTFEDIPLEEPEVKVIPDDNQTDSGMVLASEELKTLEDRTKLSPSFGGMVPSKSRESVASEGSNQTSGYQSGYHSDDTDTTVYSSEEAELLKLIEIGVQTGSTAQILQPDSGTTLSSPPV

Structure (SMILES) | IC50
CC(=O)Nc1ccc(NC=C2C(=O)Nc3ccccc32)cc1 [Example 34, 3-[(4-Acetanilidylamino)-methylene]-1,3-dihydro-indol-2-one] | 470 nM
O=C(O)Cc1cccc(NC=C2C(=O)Nc3ccccc32)c1 [Example 35, (3-[(2-Oxo-1,2-dihydro-indol-3-ylidenemethyl)-amino]-phenyl-)acetic acid] | 190 nM
O=C1Nc2ccccc2C1=CNc1ccc2ncsc2c1 [Example 43, 3-[(6-Benzthioazolylamino)-methylene]-1,3-dihydro-indol-2-one] | 230 nM
O=C1Nc2ccccc2C1=CNc1ccc(C(=O)O)c(O)c1 [Example 44, 2-Hydroxy-4-[(2-oxo-1,2-dihydro-indol-3-ylidenemethyl)-amino]-benzoic acid] | 660 nM
Cc1ccc(NC=C2C(=O)Nc3ccccc32)cc1O [Example 48, 3-[(3-Hydroxy-4-methyl-phenylamino)-methylene]-1,3-dihydro-indol-2-one] | 740 nM
COc1ccc(NC=C2C(=O)Nc3ccccc32)cc1O [Example 49, 3-[(3-Hydroxy-4-methoxy-phenylamino)-methylene]-1,3-dihydro-indol-2-one] | 510 nM
O=C1Nc2ccccc2C1=CNc1ccc(OC(F)F)cc1 [Example 50, 3-{[4-(1,1-Difluoro-methoxy)-phenylamino]-methylene}-1,3-dihydro-indol-2-one] | 550 nM
CC(C)c1ccc(NC=C2C(=O)Nc3ccccc32)cc1 [Example 52, 3-[(4-Isopropyl-phenylamino)-methylene]-1,3-dihydro-indol-2-one] | 580 nM

More lines, now with the values ahead:

IC50 | Structure (SMILES)
1880 nM | COc1cccc(NC=C2C(=O)Nc3ccc(Cl)cc32)c1 [Example 57, 5-Chloro-3-[(3-methoxy-phenylamino)-methylene]-1,3-dihydro-indol-2-one]
180 nM | COc1ccc(NC=C2C(=O)Nc3cccc(C)c32)cc1 [Example 59, 3-[(4-Methoxy-phenylamino)-methylene]-4-methyl-1,3-dihydro-indol-2-one]
280 nM | Cc1cccc2c1C(=CNc1cccc(O)c1)C(=O)N2 [Example 60, 3-[(3-Hydroxy-phenylarmino)-methylene]-4-methyl-1,3-dihydro-indol-2-one]
530 nM | COc1ccc(NC=C2C(=O)Nc3ccc(Cl)cc32)cc1O [Example 65, 3-[(3-Hydroxy-4-methoxyphenylamino)-methylene]-5-chloro-1,3-dihydro-indol-2-one]
430 nM | CC(O)c1ccc(NC=C2C(=O)Nc3ccc(Cl)cc32)cc1 (centres unmarked) [Example 72, 5-Chloro-3-{[4-(1-hydroxy-ethyl)-phenylamino]-methylene}-1,3-dihydro-indol-2-one]
260 nM | COc1ccc(NC=C2C(=O)Nc3ccc(Cl)cc32)cc1 [Example 73, 3-[(4-Methoxyphenylamino)-methylene]-5-chloro-1,3-dihydro-indol-2-one]
100 nM | O=C1Nc2cc(F)ccc2C1=CNc1ccc(CCN2CCOCC2)cc1 [Example 311, 6-Fluoro-3-{[4-(2-morpholin-4-yl-ethyl)-phenylamino]-methylene}-1,3-dihydro-indol-2-one]
